# Assay results as given in US8758816B2, “Compositions comprising azelastine and methods of use thereof” (priority 2004, dated 2014).
# Tested on: patients with seasonal allergic rhinitis (SAR)
# Assay: MP 428 study: individual symptom severity scores (runny nose, itchy nose, sneezing, congestion; 0-3 scale)
# Assay type: in vivo, human
# Settings: Intent-to-Treat Population
# Method: A two-week, randomized, double-blind study, which evaluated the effects of the co-administration of ASTELIN® (azelastine hydrochloride (HCl)) and FLONASE® (fluticasone propionate) compared to either product alone in patients with seasonal allergic rhinitis (SAR) was conducted during the 2006 Texas mountain cedar season. After a 5-day placebo lead-in period, 151 patients with moderate-to-severe allergic rhinitis symptoms were randomized to either: (1) (49 total patients) ASTELIN® (azelastine hydrochloride (HCl)) plus placebo saline nasal spray 2 sprays per nostril, 15 minutes apart, twice daily (AM & PM); (2) (50 total patients) FLONASE® (fluticasone propionate) plus placebo saline nasal spray, 2 sprays per nostril, 15 minutes apart, once daily (AM) and two sessions of placebo saline nasal spray, 2 sprays per nostril, 15 minutes apart (PM); or (3) (52 total patients) the co-administration of ASTELIN® (azelastine hydrochloride (HCl)) 2 sprays per nostril plus FLONASE® (fluticasone propionate) 2 sprays per nostril (AM), 15 minutes apart, and ASTELIN® (azelastine hydrochloride (HCl)) 2 sprays per nostril plus placebo saline nasal spray, 15 minutes apart, (PM) for a 2-week double-blind treatment period.
# The primary efficacy variable was the change from baseline in the Total Nasal Symptom Score (TNSS), which comprised sneezing, itchy nose, runny nose, and nasal congestion (individual symptoms scores were assigned a value between 0 and 3, where 0=no symptoms and 3=severe symptoms). This study was not statistically designed to assess the differences between ASTELIN® and FLONASE®.
# The results of the clinical trial are summarized and presented in Appendix A hereinbelow and in FIGS. 1-6. […] FIGS. 2-5 show the mean improvement in severity score (0-3 scale) from baseline for the symptoms of runny nose, itchy nose, sneezing and congestion, respectively.
compound,measurement,setting,value
"CCC(=O)O[C@]1(C(=O)SCF)[C@H](C)C[C@H]2[C@@H]3C[C@H](F)C4=CC(=O)C=C[C@]4(C)[C@@]3(F)[C@@H](O)C[C@@]21C [Fluticasone, fluticasone propionate]","Percent Change from Baseline in AM and PM Combined Nasal Symptom Score: Congestion, LS Mean",Day 12,−26.02%
same,"Percent Change from Baseline in AM and PM Combined Nasal Symptom Score: Congestion, Mean",Day 12,−27.05%
same,"Percent Change from Baseline in AM and PM Combined Nasal Symptom Score: Congestion, Median",Day 12,−27.93%
same,"Percent Change from Baseline in AM and PM Combined Nasal Symptom Score: Itchy Nose, LS Mean",Day 12,−29.96%
same,"Percent Change from Baseline in AM and PM Combined Nasal Symptom Score: Itchy Nose, Mean",Day 12,−29.58%
same,"Percent Change from Baseline in AM and PM Combined Nasal Symptom Score: Itchy Nose, Median",Day 12,−30.22%
same,"Percent Change from Baseline in AM and PM Combined Nasal Symptom Score: Runny Nose, LS Mean",Day 12,−31.33%
same,"Percent Change from Baseline in AM and PM Combined Nasal Symptom Score: Runny Nose, Mean",Day 12,−31.86%
same,"Percent Change from Baseline in AM and PM Combined Nasal Symptom Score: Runny Nose, Median",Day 12,−25.62%
same,"Percent Change from Baseline in AM and PM Combined Nasal Symptom Score: Sneezing, LS Mean",Day 12,−33.86%
same,"Percent Change from Baseline in AM and PM Combined Nasal Symptom Score: Sneezing, Mean",Day 12,−31.18%
same,"Percent Change from Baseline in AM and PM Combined Nasal Symptom Score: Sneezing, Median",Day 12,−35.69%
same,"Change from Baseline in AM and PM Combined Nasal Symptom Score: Congestion, LS Mean",Day 13,−1.55
same,"Change from Baseline in AM and PM Combined Nasal Symptom Score: Congestion, Mean",Day 13,−1.59
same,"Change from Baseline in AM and PM Combined Nasal Symptom Score: Congestion, Median",Day 13,−1.43
same,"Change from Baseline in AM and PM Combined Nasal Symptom Score: Itchy Nose, LS Mean",Day 13,−1.64
same,"Change from Baseline in AM and PM Combined Nasal Symptom Score: Itchy Nose, Mean",Day 13,−1.62
same,"Change from Baseline in AM and PM Combined Nasal Symptom Score: Itchy Nose, Median",Day 13,−1.42
same,"Change from Baseline in AM and PM Combined Nasal Symptom Score: Runny Nose, LS Mean",Day 13,−1.78
same,"Change from Baseline in AM and PM Combined Nasal Symptom Score: Runny Nose, Mean",Day 13,−1.78
same,"Change from Baseline in AM and PM Combined Nasal Symptom Score: Runny Nose, Median",Day 13,−2.00
same,"Change from Baseline in AM and PM Combined Nasal Symptom Score: Sneezing, LS Mean",Day 13,−1.98
same,"Change from Baseline in AM and PM Combined Nasal Symptom Score: Sneezing, Mean",Day 13,−1.84
same,"Change from Baseline in AM and PM Combined Nasal Symptom Score: Sneezing, Median",Day 13,−1.83
same,"Percent Change from Baseline in AM and PM Combined Nasal Symptom Score: Congestion, LS Mean",Day 13,−28.59%
same,"Percent Change from Baseline in AM and PM Combined Nasal Symptom Score: Congestion, Mean",Day 13,−28.95%
same,"Percent Change from Baseline in AM and PM Combined Nasal Symptom Score: Congestion, Median",Day 13,−26.38%
same,"Percent Change from Baseline in AM and PM Combined Nasal Symptom Score: Itchy Nose, LS Mean",Day 13,−31.14%
same,"Percent Change from Baseline in AM and PM Combined Nasal Symptom Score: Itchy Nose, Mean",Day 13,−30.81%
same,"Percent Change from Baseline in AM and PM Combined Nasal Symptom Score: Itchy Nose, Median",Day 13,−31.23%
same,"Percent Change from Baseline in AM and PM Combined Nasal Symptom Score: Runny Nose, LS Mean",Day 13,−30.96%
same,"Percent Change from Baseline in AM and PM Combined Nasal Symptom Score: Runny Nose, Mean",Day 13,−30.84%
same,"Percent Change from Baseline in AM and PM Combined Nasal Symptom Score: Runny Nose, Median",Day 13,−33.33%
same,"Percent Change from Baseline in AM and PM Combined Nasal Symptom Score: Sneezing, LS Mean",Day 13,−42.84%
same,"Percent Change from Baseline in AM and PM Combined Nasal Symptom Score: Sneezing, Mean",Day 13,−40.87%
same,"Percent Change from Baseline in AM and PM Combined Nasal Symptom Score: Sneezing, Median",Day 13,−35.42%
same,"Change from Baseline in AM and PM Combined Nasal Symptom Score: Congestion, LS Mean",Day 14,−1.53
same,"Change from Baseline in AM and PM Combined Nasal Symptom Score: Congestion, Mean",Day 14,−1.59
same,"Change from Baseline in AM and PM Combined Nasal Symptom Score: Congestion, Median",Day 14,−1.30
same,"Change from Baseline in AM and PM Combined Nasal Symptom Score: Itchy Nose, LS Mean",Day 14,−1.76
same,"Change from Baseline in AM and PM Combined Nasal Symptom Score: Itchy Nose, Mean",Day 14,−1.74
same,"Change from Baseline in AM and PM Combined Nasal Symptom Score: Itchy Nose, Median",Day 14,−1.57
same,"Change from Baseline in AM and PM Combined Nasal Symptom Score: Runny Nose, LS Mean",Day 14,−1.89
same,"Change from Baseline in AM and PM Combined Nasal Symptom Score: Runny Nose, Mean",Day 14,−1.88
same,"Change from Baseline in AM and PM Combined Nasal Symptom Score: Runny Nose, Median",Day 14,−2.15
same,"Change from Baseline in AM and PM Combined Nasal Symptom Score: Sneezing, LS Mean",Day 14,−1.87
same,"Change from Baseline in AM and PM Combined Nasal Symptom Score: Sneezing, Mean",Day 14,−1.70
same,"Change from Baseline in AM and PM Combined Nasal Symptom Score: Sneezing, Median",Day 14,−1.83
same,"Percent Change from Baseline in AM and PM Combined Nasal Symptom Score: Congestion, LS Mean",Day 14,−28.37%
same,"Percent Change from Baseline in AM and PM Combined Nasal Symptom Score: Congestion, Mean",Day 14,−29.09%
same,"Percent Change from Baseline in AM and PM Combined Nasal Symptom Score: Congestion, Median",Day 14,−24.53%
same,"Percent Change from Baseline in AM and PM Combined Nasal Symptom Score: Itchy Nose, LS Mean",Day 14,−33.39%
same,"Percent Change from Baseline in AM and PM Combined Nasal Symptom Score: Itchy Nose, Mean",Day 14,−33.38%
same,"Percent Change from Baseline in AM and PM Combined Nasal Symptom Score: Itchy Nose, Median",Day 14,−33.33%
same,"Percent Change from Baseline in AM and PM Combined Nasal Symptom Score: Runny Nose, LS Mean",Day 14,−36.10%
same,"Percent Change from Baseline in AM and PM Combined Nasal Symptom Score: Runny Nose, Mean",Day 14,−35.65%
same,"Percent Change from Baseline in AM and PM Combined Nasal Symptom Score: Runny Nose, Median",Day 14,−41.75%
same,"Percent Change from Baseline in AM and PM Combined Nasal Symptom Score: Sneezing, LS Mean",Day 14,−39.31%
same,"Percent Change from Baseline in AM and PM Combined Nasal Symptom Score: Sneezing, Mean",Day 14,−36.07%
same,"Percent Change from Baseline in AM and PM Combined Nasal Symptom Score: Sneezing, Median",Day 14,−33.94%
same,"Change from Baseline in AM and PM Combined Nasal Symptom Score: Congestion, LS Mean",Overall (Day 2 to Day 14),−1.14
same,"Change from Baseline in AM and PM Combined Nasal Symptom Score: Congestion, Mean",Overall (Day 2 to Day 14),−1.19
same,"Change from Baseline in AM and PM Combined Nasal Symptom Score: Congestion, Median",Overall (Day 2 to Day 14),−0.99
same,"Change from Baseline in AM and PM Combined Nasal Symptom Score: Itchy Nose, LS Mean",Overall (Day 2 to Day 14),−1.25
same,"Change from Baseline in AM and PM Combined Nasal Symptom Score: Itchy Nose, Mean",Overall (Day 2 to Day 14),−1.24
same,"Change from Baseline in AM and PM Combined Nasal Symptom Score: Itchy Nose, Median",Overall (Day 2 to Day 14),−0.95
same,"Change from Baseline in AM and PM Combined Nasal Symptom Score: Runny Nose, LS Mean",Overall (Day 2 to Day 14),−1.34
same,"Change from Baseline in AM and PM Combined Nasal Symptom Score: Runny Nose, Mean",Overall (Day 2 to Day 14),−1.36
same,"Change from Baseline in AM and PM Combined Nasal Symptom Score: Runny Nose, Median",Overall (Day 2 to Day 14),−1.04
same,"Change from Baseline in AM and PM Combined Nasal Symptom Score: Sneezing, LS Mean",Overall (Day 2 to Day 14),−1.52
same,"Change from Baseline in AM and PM Combined Nasal Symptom Score: Sneezing, Mean",Overall (Day 2 to Day 14),−1.44
same,"Change from Baseline in AM and PM Combined Nasal Symptom Score: Sneezing, Median",Overall (Day 2 to Day 14),−1.34
same,"Percent Change from Baseline in AM and PM Combined Nasal Symptom Score: Congestion, LS Mean",Overall (Day 2 to Day 14),−21.11%
same,"Percent Change from Baseline in AM and PM Combined Nasal Symptom Score: Congestion, Mean",Overall (Day 2 to Day 14),−21.68%
same,"Percent Change from Baseline in AM and PM Combined Nasal Symptom Score: Congestion, Median",Overall (Day 2 to Day 14),−18.72%
same,"Percent Change from Baseline in AM and PM Combined Nasal Symptom Score: Itchy Nose, LS Mean",Overall (Day 2 to Day 14),−25.54%
same,"Percent Change from Baseline in AM and PM Combined Nasal Symptom Score: Itchy Nose, Mean",Overall (Day 2 to Day 14),−25.67%
same,"Percent Change from Baseline in AM and PM Combined Nasal Symptom Score: Itchy Nose, Median",Overall (Day 2 to Day 14),−18.89%
same,"Percent Change from Baseline in AM and PM Combined Nasal Symptom Score: Runny Nose, LS Mean",Overall (Day 2 to Day 14),−23.02%
same,"Percent Change from Baseline in AM and PM Combined Nasal Symptom Score: Runny Nose, Mean",Overall (Day 2 to Day 14),−23.19%
same,"Percent Change from Baseline in AM and PM Combined Nasal Symptom Score: Runny Nose, Median",Overall (Day 2 to Day 14),−21.99%
same,"Percent Change from Baseline in AM and PM Combined Nasal Symptom Score: Sneezing, LS Mean",Overall (Day 2 to Day 14),−31.80%
same,"Percent Change from Baseline in AM and PM Combined Nasal Symptom Score: Sneezing, Mean",Overall (Day 2 to Day 14),−31.11%
same,"Percent Change from Baseline in AM and PM Combined Nasal Symptom Score: Sneezing, Median",Overall (Day 2 to Day 14),−33.13%
